The results in this text go back to PubChem BioAssay AID1549 (Sanford-Burnham Center for Chemical Genomics, 2009).

One may read the Kd as the free concentration of one partner at which half of the binding sites on the other are occupied at equilibrium, for simple one-to-one binding.

Active and inactive are the calls of the source. How the calls were made is not given here.

The target in the assay is Influenza A virus M2 proton channel (A/TW/4845/1999 H1N1). Kind of assay: NMR binding screen, influenza A virus M2 proton channel, Kd (AID 1549). The note with it: M2 protein.
With `Cc1nc2nc(COc3ccccc3)nn2c(C)c1Cl`, the Kd is > 4 mM (inactive).

Take `CC(=O)O[C@H]1CCC2(C)C3=C(CCC2C1(C)C)[C@@]1(C)CC[C@@H](C(C)CCC=C(C)C)[C@]1(C)CC3` (stereo partly specified): the Kd was > 4 mM (inactive).

Regarding `O=C(O)CN1C(=O)c2ccc(C(=O)O)cc2C1=O`, the Kd is > 4 mM (inactive).

Consider `O=C(O)CCC(=O)Nc1ccccn1`, for which the Kd was > 4 mM (inactive).

On to `NS(=O)(=O)c1ccc(NC(=S)NC2CC2)cc1`, for which the Kd is > 4 mM (inactive).

On to `CCOC(=O)c1c(C)cc(O)cc1O`, for which the Kd is > 4 mM (inactive).

As for `O=C(O)c1cc2ccccc2[nH]1`, the Kd was > 4 mM (inactive).

On to `CCc1nnsc1C(=O)Nc1nccs1`, for which the Kd is > 4 mM (inactive).

In the case of `Cc1cc(C)n2nc(N)nc2n1`, the Kd was > 4 mM (inactive).

Turning to `CC(C)C(=O)NCC(c1ccco1)N1CCOCC1` (stereo unspecified), the Kd was > 4 mM (inactive).

Turning to `OCC1Cc2ccccc2CN1` (stereo unspecified), the Kd was > 4 mM (inactive).

`O=C(O)CCC(=O)Nc1nnc(C(F)(F)F)s1`: the Kd was > 4 mM (inactive).

As to `COC(=O)c1oc2ccc(Cl)cc2c1NC(C)=O`, the Kd is > 4 mM (inactive).

As to `Cc1nnc(SCc2ccccc2)[nH]c1=O`, the Kd is > 4 mM (inactive).

`Cc1ccc(CCC(N)=O)o1`: the Kd is > 4 mM (inactive).

As for `COc1ccc(NC2=NCC(C)S2)cc1` (stereo unspecified), the Kd is > 4 mM (inactive).

For `Clc1ccc(-c2nnc3ccccn23)cc1`, the Kd is > 4 mM (inactive).

For the compound `CCc1ccccc1NC(=O)c1cnccn1`, the Kd is > 4 mM (inactive).

For the compound `CCN=Cc1c(O)n(-c2ccccc2C)c(=O)[nH]c1=O`, the Kd is > 4 mM (inactive).

Consider `COC(=O)C[C@H]1C(C)(C)C(OC(C)=O)[C@]2(O)C=C3C(CC[C@]4(C)C3CC(=O)O[C@H]4c3ccoc3)C1(C)C2=O` (stereo partly specified), for which the Kd is > 4 mM (inactive).

Take `O=C1CCN(c2ccccc2)N1`: the Kd was > 4 mM (inactive).

`O=C(O)c1sccc1-n1cccc1`: the Kd is > 4 mM (inactive).

Consider `CCCCCCCCCCCC[C@H](C(=O)O)[C@@H](C)C(=O)O`, for which the Kd is > 4 mM (inactive).

With `CNC(C)[C@H](O)c1ccccc1` (stereo partly specified), the Kd is > 4 mM (inactive).

Take `COc1cccc(NC(=O)c2nc3ncccn3n2)c1`: the Kd is > 4 mM (inactive).

As to `N#Cc1cnn(-c2ccc(Cl)cc2)c1N`, the Kd is > 4 mM (inactive).

In the case of `O=C(Nc1ccc2c(c1)OCO2)c1cccc(F)c1`, the Kd is > 4 mM (inactive).

Turning to `COc1ccc2[nH]cc(CCNC(C)=O)c2c1`, the Kd was > 4 mM (inactive).

On to `NC1=NC(=O)/C(=C\c2ccco2)S1`, for which the Kd was > 4 mM (inactive).

`CCCCCCCCCCCCCCCCCCOCC(O)CO` (stereo unspecified): the Kd is > 4 mM (inactive).

As to `Cn1c(SCc2ccon2)nc2ccccc2c1=O`, the Kd is > 4 mM (inactive).

For the compound `Nc1ccccc1C(=O)CC(N)C(=O)O` (stereo unspecified), the Kd is > 4 mM (inactive).

For `O=C(CN1CCOCC1)Nc1nccs1`, the Kd is > 4 mM (inactive).

For `CS(=O)(=O)N1CCN(c2ccccc2F)CC1`, the Kd is > 4 mM (inactive).

Take `Cc1cc(=O)n2[nH]cnc2n1`: the Kd was > 4 mM (inactive).

For `Cc1cc(C)c2ccc[n+]([O-])c2c1O`, the Kd was > 4 mM (inactive).

As for `O=C(NCc1cccc(Cl)c1)c1cccnc1`, the Kd is > 4 mM (inactive).

For `Cc1ccc(/C=C2/C(=O)N=C(N)N2C)s1`, the Kd is > 4 mM (inactive).

Take `CSc1n[nH]c(NCc2cccs2)n1`: the Kd is > 4 mM (inactive).

Regarding `Nc1ccccc1N1CCOCC1`, the Kd was > 4 mM (inactive).

Regarding `Cc1cc(C)n2c(SCc3cccs3)nnc2n1`, the Kd was > 4 mM (inactive).

For `CN1C(=O)C(Cc2c[nH]c3ccccc23)C(=O)N(C)C1=O`, the Kd was > 4 mM (inactive).

For `COC(=O)N1CCN(c2ccc(OC)cc2)CC1`, the Kd is > 4 mM (inactive).

For `CCCNC(=O)CSc1nnc(C)s1`, the Kd is > 4 mM (inactive).

As to `OCc1ccc2nonc2c1`, the Kd was > 4 mM (inactive).

In the case of `OCc1ccccc1O[C@@H]1O[C@H](CO)[C@@H](O)[C@H](O)[C@H]1O`, the Kd was > 4 mM (inactive).

On to `Cn1c(=O)c2[nH]cnc2n(C)c1=O`, for which the Kd is > 4 mM (inactive).

In the case of `COc1cc(OC)c2c(=O)c(-c3ccc4c(c3)OCO4)coc2c1`, the Kd is > 4 mM (inactive).

For the compound `COc1ccccc1/C=C/CN1CCOCC1`, the Kd was > 4 mM (inactive).

With `OCc1nc2ccccc2s1`, the Kd was > 4 mM (inactive).

As for `CC1CCC2(OC1)OC1CC3C4CCC5C[C@@H](O)CCC5(C)C4=CCC3(C)C1[C@@H]2C` (stereo partly specified), the Kd is > 4 mM (inactive).

Regarding `CC(=O)N1CCc2ccccc2C1CC(=O)O` (stereo unspecified), the Kd was > 4 mM (inactive).

For the compound `CCOC(=O)c1c(C)cc(O)c(C=O)c1O`, the Kd was > 4 mM (inactive).

Consider `COc1ccc(-c2coc3cc(O)ccc3c2=O)c(O)c1O`, for which the Kd is > 4 mM (inactive).

On to `Oc1cc(O)c2c(c1)O[C@H](c1cc(O)c(O)c(O)c1)[C@H](O)C2`, for which the Kd was > 4 mM (inactive).

As to `c1ccc(CSc2ncccn2)cc1`, the Kd was > 4 mM (inactive).

Regarding `CC12CCCC(O)(C1)C1CC(C)(C)C1CC2` (stereo unspecified), the Kd was > 4 mM (inactive).

On to `Nc1scc[n+]1CC(=O)[O-]`, for which the Kd was > 4 mM (inactive).

As to `CC(=O)CS(=O)(=O)c1ccccc1`, the Kd was > 4 mM (inactive).

Regarding `O=C(O)Cn1cc(C(=O)c2cccs2)c2ccccc21`, the Kd was > 4 mM (inactive).

Regarding `O=C(O)c1cc(=O)c2cccc(O)c2[nH]1`, the Kd is > 4 mM (inactive).

On to `CCCCCC1C(=O)CCC1CC(=O)OC` (stereo unspecified), for which the Kd is > 4 mM (inactive).

Turning to `O=C1C(=O)N(CN2CCN(CCO)CC2)c2ccccc21`, the Kd is > 4 mM (inactive).

As for `Cc1ccccc1-n1c(-c2ccncc2)n[nH]c1=S`, the Kd was > 4 mM (inactive).

With `C=C[C@@](C)(O)CCC1C(=C)C[C@H](O)C2C(C)(C)CCCC12C` (stereo partly specified), the Kd is > 4 mM (inactive).

For the compound `OCc1cccs1`, the Kd is > 4 mM (inactive).

With `NC(=O)c1ccccc1N1CCCCC1`, the Kd was > 4 mM (inactive).

As to `CN1CCC(=NNC(=O)c2ccco2)CC1`, the Kd was > 4 mM (inactive).

For the compound `O=C(Nc1ccccn1)c1cc(-n2cnnc2)ccc1Cl`, the Kd is > 4 mM (inactive).

`C[C@@H]1[C@H]2[C@H](O[C@@H]3O[C@H](CO)[C@@H](O)[C@H](O)[C@H]3O)OC=C(C(=O)O)[C@H]2C[C@@H]1O`: the Kd was > 4 mM (inactive).

Turning to `Cc1csc2nc(=O)c3ccccc3n12`, the Kd was > 4 mM (inactive).

Regarding `COc1ccc(NC(=O)C2CC(=O)N=C(N)S2)cc1` (stereo unspecified), the Kd is > 4 mM (inactive).

For `CS(=O)(=O)N1CCN(C(=O)Cc2cccs2)CC1`, the Kd is > 4 mM (inactive).

With `COc1ccccc1-c1c(C)nn2c(C)c(C(C)=O)cnc12`, the Kd is > 4 mM (inactive).

`Cc1cc(NC(=O)c2ccc3c(c2)OCCO3)no1`: the Kd was > 4 mM (inactive).

In the case of `NC(=S)NC1CCS(=O)(=O)C1` (stereo unspecified), the Kd is > 4 mM (inactive).
